From patent US4431807A, “4-Methyl-5-(unsubstituted and substituted phenoxy)-6-methoxy-8-(aminoalkylamino)quinolines” (priority 1981, dated 1984)
“And” between values parts separate entries of the source, which are not always exact repeats. Equal values may be shown once. Read-outs that look alike come from different tables or passages of the source.

Legend:
Plasmodium cynomolgi [1] = conditions: cited from earlier work
Plasmodium berghei [2] = conditions: cited from earlier work
Plasmodium berghei [3] = experiment: Blood schizonticidal (suppressive) test, Rane mouse test, P. berghei; format: in vivo, Plasmodium berghei KBG 173 in ICR/HA Swiss mice; conditions: for Cures (60 days survival) / Suppressive activity (active/inactive) / Toxic: five mice; for Cures (60 days survival) / Extension of survival relative to controls / Suppressive activity (active/inactive) / Toxic: Table III
Description: Blood Schizonticidal Test (Mouse), University of Miami, Rane (Suppressive)
This system is based on comparisons of responses to test compounds by Plasmodium berghei KBG 173 malaria in mice as expressed in mean survival times and the mean survival times of untreated controls. Thus, compounds noted as active produce increases in the survival times of the treated animals that are significant when compared with the survival times of untreated controls. Since an established disease is less sensitive to treatment than a disease in the early stages of development, treatment is withheld until the parasitemia is relatively high in order to insure a more reliable assay of activity and the selection of appropriate compounds for intensive preclinical studies.
Utilizing young ICR/HA Swiss mice and a standard inoculum of Plasmodium berghei KBG 173, it is possible to produce a uniform disease fatal to 100% of untreated animals within 6 to 8 days with a mean survival time of 6.2 days. Test animals weigh from 18 to 22 grams but weight variations in any given experimental or control group are confined to 2-3 grams. All animals in any given test are approximately of the same age. Animals on test are housed in metal-topped plastic cages, given a standard laboratory diet and water ad libitum.
Test animals receive an intraperitoneal injection of 0.5 ml of 1:100 dilution of heparinized heart's blood with a minimum of 90% parasitized cells (4×10^7 cells), drawn from donor mice infected one week earlier with Plasmodium berghei. The donor stran is maintained by weekly passages in separate groups of mice inoculated with a 0.5 ml of 1:500 dilution of heparinized heart's blood.
Test compounds are administered after dissolution or suspension in peanut oil. A single dose is given subcutaneously 72 hours after the mice are infected with Plasmodium berghei. At this time a 10-15 percent parasitemia has developed; the disease is well established but has not produced sufficient debility to alter the response of the host to toxic effects of the drug on test. Since treatment is withheld for three days to permit the infection to become well established and death occurs in untreated controls within 6-8 days, it is believed that this system presents a candidate compound with the maximum challenge. In order to check factors such as changes in the infectivity of Plasmodium berghei or in the susceptibility of the host or to detect technical errors, a group of infected animals treated with pyrimethamine at dose levels producing definite increases in survival time is included as a positive control in every experiment.
In each experiment test compounds are administered in graded doses. […] However, if an active drug is toxic for the host, its toxicity may become a limiting factor; continued increases in dose levels also increase the toxic effects and may result in the diminution of survival times. Deaths prior to the sixth day, when untreated controls begin to die, are regarded as non-parasitic and become the basis for toxicity evaluations. Treated animals are kept under observation for 60 days. Survivors at the end of this period of time are considered as cured.
An increase of 100% in mean survival time is considered the minimum effective response for a candidate compound. In calculating mean survival time, toxic deaths and 60 day survivors are not included.
The antimalarial activity data acquired by the two test procedures described above are listed in Tables 2 and 3 for the compounds of this invention. In Table 4, the most promising compound of the series, compound 1, is compared directly with primaquine together with some additional test data for compound 1 compared to primaquine. In all the work reported herein primaquine is used in the form of the diphosphate salt. The test data are expressed in the form of the number of cures at a given dose level. […]

Plasmodium cynomolgi [4] = experiment: Radical curative (tissue schizonticidal) test, SEATO, P. cynomolgi, rhesus monkey; format: in vivo, Plasmodium cynomolgi (strain B) in Indian rhesus monkeys; conditions: for Molar Primaquine Index CD 100: primaquine CD100 dose / drug CD100 dose, in moles; for Radical curative activity relative to primaquine: in words
Description: Radical Curative Test in Rhesus Monkeys, SEATO Medical Research Laboratory, Bangkok, John Brown/Richard Andre
This test is designed to evaluate the tissue schizonticidal (radical curative) activity of test compounds. Well-conditioned Indian rhesus monkeys of either sex weighing 2-4 Kg are utilized. Plasmodium cynomolgi (strain B) sporozoites are prepared by grinding heavily infected Anopheles dirus salivary glands in 1:1 monkey serum-saline vehicle.
Monkeys are infected by I.V. injection of 10^6 freshly isolated P. cynomolgi sporozoites on day 0. A rapidly rising parasitemia develops after a 7-9 day prepatent period, and administration of the test drug is initiated when the rising parasite count exceeds 5000 per mm^3 (typically day 10-12). Test drugs are administered orally (by nasogastric intubation) once daily for 7 consecutive days in aqueous solution or, if insoluble, in suspension in 0.3% methylcellulose solution. Chloroquine diphosphate (3.1 mg/kg base/kg orally per day) is always administered concurrently with the test drug for 7 days to eliminate blood schizonts. Thus any tissue schizonticidal activity of the test drug will always be apparent even if it lacks blood schizonticidal activity.
A vehicle control monkey and a positive drug control (primaquine) monkey are included in each group of inoculated monkeys.
The effect of the test drug is determined by counting blood parasites. Parasite counts are made daily through day 20, and every two days thereafter. Initially a clearance of blood parasites is observed due to the blood schizonticidal action of chloroquine. […] If there is no relapse within 20 days of the initial clearance of parasitemia, the monkey is splenectomized and its parasitemia followed for an additional 30 days. If there is no relapse within this period, the experiment is terminated and the monkey is considered "cured".
Primaquine diphosphate cures over 90% of monkeys in this test system when administered at a dose of 1.3 mg/kg of salt per day for 7 days ([…]) in combination with chloroquine.
The antimalarial activity data acquired by the two test procedures described above are listed in Tables 2 and 3 for the compounds of this invention. In Table 4, the most promising compound of the series, compound 1, is compared directly with primaquine together with some additional test data for compound 1 compared to primaquine. In all the work reported herein primaquine is used in the form of the diphosphate salt. The test data are expressed in the form of the number of cures at a given dose level. Extension of life (mean survival time) relative to the controls is noted in the Rane mouse test; if the mean survival time is extended seven or more days, the compound is considered to be active.
The Molar Primaquine Index is useful in the radical curative test (Table II) as a gauge of the efficacy of a candidate drug relative to primaquine.

| SMILES | Cures (60 days survival) (Plasmodium berghei [3]; 20 mg/kg × 1, s.c.) [C] | Cures (60 days survival) (Plasmodium berghei [3]; 40 mg/kg × 1, s.c.) [C] | Molar Primaquine Index CD 100 (Plasmodium cynomolgi [4]) | Cures (60 days survival) (Plasmodium berghei [3]; 10 mg/kg × 1, s.c.) [C] | Cures (60 days survival) (Plasmodium berghei [3]; 80 mg/kg × 1, s.c.) [C] | Cures (60 days survival) (Plasmodium berghei [3]; 160 mg/kg × 1, s.c.) [C] | Cures (60 days survival) (Plasmodium berghei [3]; 320 mg/kg × 1, s.c.) [C] | Toxic (Plasmodium berghei [3]; 640 mg/kg × 1, s.c.) [T] | Cures (60 days survival) (Plasmodium berghei [3]; 640 mg/kg × 1, s.c.) [C] | further results |
| --- | --- | --- | --- | --- | --- | --- | --- | --- | --- | --- |
| COc1cc(NC(C)CCCN)c2nccc(C)c2c1 (centres unmarked) [4-Methylprimaquine, 4-methylprimaquine] |  |  |  |  |  |  |  |  |  | Radical curative activity (Plasmodium cynomolgi [1]; 0.316 mg/kg, prior art comparison): inactive; % cures (radical curative) (Plasmodium cynomolgi [1]; 1.0 mg/kg): 100%; Radical curative activity relative to primaquine (Plasmodium cynomolgi [1]; prior art compounds): comparable to primaquine and essentially equivalent in efficacy; Δ MST (Plasmodium berghei [2]; 160 mg/kg, 5 mice, Table I): 9 days; Δ MST (Plasmodium berghei [2]; 320 mg/kg, 5 mice, Table I): 10 days; Cures (Plasmodium berghei [2]; 640 mg/kg, 5 mice, Table I): 3C; Toxic deaths (Plasmodium berghei [2]; 640 mg/kg, 5 mice, Table I): 1T; Only curative (toxic) dose in suppressive test (Plasmodium berghei [2]; curative only at the toxic dose): 640 mg/kg; Suppressive activity (Plasmodium berghei [2]; non-toxic dose levels, prior art comparison): very weak activity |
| COc1cc(NCCCC(C)N)c2nccc(C)c2c1Oc1cccc(C(F)(F)F)c1 (centres unmarked) [Compound 2, 8-((4-Amino-1-pentyl)amino)-6-methoxy-4-methyl-5-(3-trifluoromethylphenoxy)-quinoline Hemisuccinate] | 4 | 5 | 1.3 |  |  |  |  |  |  |  |
| COc1cc(NCCCCC(C)N)c2nccc(C)c2c1Oc1cccc(C(F)(F)F)c1 (centres unmarked) [Compound 3, 8-((5-Amino-1-hexyl)amino)-6-methoxy-4-methyl-5-(3-trifluoromethylphenoxy)quinoline Hemisuccinate Hydrate] | 5 | 5 | 1.3 | 3 | 4 | 4 |  |  |  | Extension of survival relative to controls (Plasmodium berghei [3]; 5 mg/kg × 1, s.c.): 13 days; Suppressive activity (active/inactive) (Plasmodium berghei [3]; 5 mg/kg × 1, s.c.): A (Active, 7 Days or more estension of survival relative to controls.) |
| CCC(CCCN)Nc1cc(OC)c(Oc2cccc(C(F)(F)F)c2)c2c(C)ccnc12.O=C(O)CCC(=O)O (centres unmarked) [Compound 4, 8-((4-Amino-1-ethylbutyl)amino)-6-methoxy-4-methyl-5-(3-trifluoromethylphenoxy)-quinoline Succinate] | 5 | 5 | 1.3 | 3 | 5 | 5 | 5 |  |  | Cures (60 days survival) (Plasmodium berghei [3]; 640 mg/kg × 1, s.c., Succinate): 2C and 3C |
| COc1cc(NC(C)CCCNC(C)C)c2nccc(C)c2c1Oc1cccc(C(F)(F)F)c1.O=C(O)CCC(=O)O (centres unmarked) [Compound 5, 8-((4-Isopropylamino-1-methylbutyl)amino)-6-methoxy-4-methyl-5-(3-trifluoromethylphenoxy)quinoline Succinate] |  |  | 1.3 |  |  |  |  | 4 |  | Suppressive activity (Plasmodium berghei [3]; in words, Table 3): totally ineffective |
| COc1ccc(Oc2c(OC)cc(NC(C)CCCN)c3nccc(C)c23)cc1.O=P(O)(O)O (centres unmarked) [Compound 6, 8-((4-Amino-1-methylbutyl)amino)-6-methoxy-5-(4-methoxyphenoxy)-4-methylquinoline Phosphate] | 1 | 5 | 4.6 |  | 5 | 5 | 5 | 3 | 2 | Extension of survival relative to controls (Plasmodium berghei [3]; 10 mg/kg × 1, s.c.): 7 days; Suppressive activity (active/inactive) (Plasmodium berghei [3]; 10 mg/kg × 1, s.c.): A (Active, 7 Days or more estension of survival relative to controls.); Radical curative activity relative to primaquine (Plasmodium cynomolgi [4]): markedly superior to primaquine |
| COc1cc(NC(C)CCCN)c2nccc(C)c2c1Oc1ccc(Cl)c(Cl)c1.O=P(O)(O)O (centres unmarked) [Compound 7, 8-((4-Amino-1-methylbutyl)amino)-5-(3,4-dichlorophenoxy)-6-methoxy-4-methylquinoline Phosphate] | 5 | 5 | 1.3 | 5 | 5 | 5 | 5 |  | 5 | Cures (60 days survival) (Plasmodium berghei [3]; 5 mg/kg × 1, s.c.): 4C |
| COc1cc(NC(C)CCCN)c2nccc(C)c2c1Oc1ccc(Cl)cc1Cl (centres unmarked) [Compound 8, 8-((4-Amino-1-methylbutyl)amino))-5-(2,4-dichlorophenoxy)-6-methoxy-4-methylquinoline Phosphate] | 5 | 5 | 1.3 | 1 | 5 | 5 | 4 | 2 | 3 | Toxic (Plasmodium berghei [3]; 320 mg/kg × 1, s.c.): 1T |
| COc1cc(NC(C)CCCN)c2nccc(C)c2c1Oc1ccc(F)cc1.O=P(O)(O)O (centres unmarked) [Compound 9, 8-((4-Amino-1-methylbutyl)amino)-5-(4-fluorophenoxy)-6-methoxy-4-methylquinoline Phosphate] | 4 | 5 | 4.5 | 3 | 5 | 5 | 4 | 2 | 3 | Extension of survival relative to controls (Plasmodium berghei [3]; 5 mg/kg × 1, s.c.): 7 days; Suppressive activity (active/inactive) (Plasmodium berghei [3]; 5 mg/kg × 1, s.c.): A (Active, 7 Days or more estension of survival relative to controls.); Toxic (Plasmodium berghei [3]; 320 mg/kg × 1, s.c.): 1T; minimal effective dose (Plasmodium berghei [3]; Plasmodium berghei, sc, single dose, read-out: Curative dose, suppressive test): 10 mg/kg; Toxicity in suppressive test (Plasmodium berghei [3]; relative to compound 1): somewhat more toxic; Radical curative activity relative to primaquine (Plasmodium cynomolgi [4]): markedly superior to primaquine |
| OC(c1cc(C(F)(F)F)nc2c(C(F)(F)F)cccc12)C1CCCCN1 (centres unmarked) [mefloquine] |  |  |  |  |  |  |  |  |  | Curative dose, Rane Test (Plasmodium berghei [2]; newer clinical suppressive drug): 20 mg/kg |
